In patent publication US5068325A, “4,5,7,8-tetrahydro-6H-thiazolo[5,4-d]azepines, their preparation and their use as pharmaceutical compositions” (priority 1988, dated 1991):

Assays:
[1] = target: dopamine D2-receptors (Rattus norvegicus, UniProt P61169); assay: affinity for dopamine D2-receptors by displacement experiments with [3H]-spiperone (rat striatum membranes); type: binding; details: for Ki: [3H]-spiperone, high-affinity form of the dopamine receptor; for α2-IC50 / D2-Ki: relative affinity for dopamine-D2 receptors compared with α2-adrenoceptors, the higher, the higher the D2/α2 selectivity
Protocol: 1Determining the affinity for dopamine D2-receptors by displacement experiments with [^3 H]-spiperone (Modified Method of W. Billard et al., Life Sci. 35, 1885 (1984) and D. J. de Vries and P. M. Beart, Eur. J. Pharmacol. 109, 417 (1985))
Male rats (of the Chbb:Thom strain weighing about 200 g) were killed by a blow to the back of the neck. The brains were removed and dissected on ice. The striata were dissected out, weighed and homogenised in 25 volumes of tris buffer (50 mM tris-HCl, 1 mM EDTA, 5 mM MgCl2 and 1 mM ascorbic acid) for 30 seconds in an Ultra-Turrax at maximum speed, followed by 10 cycles in a Potter-Elvehjem at 1400 rpm. The pellet obtained after centrifuging at 50,000×g at 4° C. for 15 minutes was again taken up in 25 ml of tris buffer and centrifuged under the above conditions. The supernatant was discarded and the pellet obtained was incubated in 25 ml of tris buffer at 37° C. for 30 minutes and then centrifuged again at 50,000×g at 4° C. for 15 minutes. Finally, the pellet obtained was mixed with tris buffer to obtain a homogenate dilution of 1:500 (based on the weight of the striata).
1 ml aliquots of the membrane preparation were incubated with 1 ml of a solution of 0.25 nM [^3 H]-spiperone ([…], Messrs. DuPont NEN) and at increasing concentrations of the test substance (10^-11 to 10^-4 M) at ambient temperature for one hour. Incubation was ended by the addition of 5 ml of ice cold tris buffer and filtration using Whatman GF/B filters. The filters were washed twice, each time with 5 ml of ice cold buffer. The radioactivity of the filters was determined by liquid scintillation measurement in Instagel^(R) (Messrs. Canberra Packard). Non-specific binding was determined in the presence of 10^-5 M haloperidol (Sigma Chemical Co.).
Displacement curves were obtained from the data using the TOPFIT programming package (G. Heinzel in "Pharmacokinetics During Drug Development: Data Analysis and Evaluation Techniques", G. Bozler and J. M. van Rossum Eds., G. Fischer Verlag, Stuttgart 1982, 207).

[2] = target: T1, alpha-2 receptors (Rattus norvegicus, UniProt P22909); assay: affinity for alpha-2 receptors by displacement experiments with [3H]-clonidine (rat cortex membranes); type: binding; details: read-out: α2-IC50
T1 sequence (P22909 1-465): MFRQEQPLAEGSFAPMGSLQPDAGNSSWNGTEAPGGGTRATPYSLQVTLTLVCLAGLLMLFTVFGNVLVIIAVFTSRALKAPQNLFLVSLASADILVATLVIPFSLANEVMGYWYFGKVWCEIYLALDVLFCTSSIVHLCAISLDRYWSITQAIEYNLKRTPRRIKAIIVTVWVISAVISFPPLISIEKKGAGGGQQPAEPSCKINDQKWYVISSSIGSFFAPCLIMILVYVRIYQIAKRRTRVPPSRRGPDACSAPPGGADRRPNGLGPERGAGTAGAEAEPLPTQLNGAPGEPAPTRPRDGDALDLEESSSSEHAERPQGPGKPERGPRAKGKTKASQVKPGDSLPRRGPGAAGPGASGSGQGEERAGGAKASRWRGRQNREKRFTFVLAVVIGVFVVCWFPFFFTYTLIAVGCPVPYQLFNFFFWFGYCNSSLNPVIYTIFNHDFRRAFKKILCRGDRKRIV
Protocol: Determination of the affinity for alpha-2 receptors by displacement experiments with [^3 H] clonidine (Modified Method of B. Jarrott, W. J. Louis and R. J. Summers, Biochem. Pharmacol. 27, 141 (1979))
A male rat (Chbb:Thom strain weighing about 200 g) was killed by a blow to the back of the neck. The brain was removed and the cortex dissected out, weighed and homogenised in 25 volumes of tris buffer (50 mM tris- HCl, pH 7.50) for 30 seconds in an Ultra-Turrax at maximum speed, followed by 10° Cycles in a Potter- Elvehjem at 1400 rpm. The homogenised material was combined with tris buffer to obtain a homogenate dilution of 1:50 (based on the weight of the cortex).
1 ml aliquots of the membrane preparation were incubated for three hours at ambient temperature with 1 ml of a solution of 1 nM of [^3 H]-clonidine (2.2 TBq/mmol, Messrs. DuPont NEN) and with increasing concentrations of the test substance (10^-11 to 10^-4 M). Incubation was ended by the addition of 5 ml of ice-cold tris buffer and filtration through Whatman GF/B filters. The filters were washed twice, each time with 5 ml of ice cold buffer. The radioactivity of the filters was determined by liquid scintillation measurement in Instagel(R) (Messrs. Canberra Packard). The non-specific binding was determined in the presence of 10^-5 M of oxymetazoline (Sigma Chemical Co.).

[3] = test system: MPTP monkeys; assay: post-synaptic dopaminergic activity in MPTP monkeys; type: in vivo, rhesus monkey; details: for minimal effective dose: Primates, in Macaca mulatta, im, rhesus monkeys, i.m., read-out: minimum dose (MED) required to alleviate the Parkinson's symptoms; for effect on MPTP-induced symptoms: MPTP-treated rhesus monkeys
From the text: 6. Determining the post-synaptic dopaminergic activity in MPTP monkeys (Modified Method of R. S. Burns et al., Proc. Natl. Acad. Sci. 80. 4546 (1983))
The neurotoxin 1-methyl-4-phenyl-1,2,3,6- tetrahydro-pyridine (MPTP) produces in humans and monkeys an irreversible syndrome which in its clinical, pathological, biochemical and pharmacological appearance is very similar to idiopathic Parkinson's disease (Markey et al., Nature 311, 464 (1984)). The reason for this similarity is that MPTP selectively destroys those dopaminergic nerve cells in the substantia nigra of the brain which are also lost by degenerative processes in Parkinson's disease. There is even some discussion that MPTP or an MPTP-like substance might be formed in the body and trigger Parkinson's disease (S. H. Snyder, Nature 311, 514 (1984)). Possibly because of the specific MPTP metabolism, the clinical formation of the MPTP-induced Parkinson syndrome has hitherto been detected only in humans and monkeys. The MPTP model produced in the rhesus monkey is therefore exceptionally suitable for testing the activity of post-synaptically acting dopamine agonists. For this purpose, rhesus monkeys were given MPTP in overall doses of up to about 6 mg/kg of body weight, until the following symptoms appeared: The animals were akinetic and unable to take water and food.
It is clear that with the compounds according to the invention there is no sedative effect or ataxia at a dosage which is several times the MED, which can be put down to the absence of a corresponding activity mediated by the α2- receptors.

Sequence of dopamine D2-receptors (P61169 whole entry): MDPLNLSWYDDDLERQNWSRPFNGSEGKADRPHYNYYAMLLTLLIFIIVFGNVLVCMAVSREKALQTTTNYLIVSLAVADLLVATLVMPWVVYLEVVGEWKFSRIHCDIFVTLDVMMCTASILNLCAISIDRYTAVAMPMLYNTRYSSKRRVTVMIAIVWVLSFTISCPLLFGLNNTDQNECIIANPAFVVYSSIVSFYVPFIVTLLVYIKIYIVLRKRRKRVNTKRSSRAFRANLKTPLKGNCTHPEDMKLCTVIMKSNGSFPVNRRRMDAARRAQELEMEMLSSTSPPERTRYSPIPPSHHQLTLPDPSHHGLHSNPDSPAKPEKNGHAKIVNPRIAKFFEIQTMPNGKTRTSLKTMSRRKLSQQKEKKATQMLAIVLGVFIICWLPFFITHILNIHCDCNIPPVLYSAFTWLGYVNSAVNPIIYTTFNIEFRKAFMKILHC

Compound	Ki [1]	α2-IC50 / D2-Ki [1]	IC50 [2]	further results
Nc1nc2c(s1)CCN(CC=Cc1ccc(Cl)cc1)CC2 [Example 3a, 2-Amino-6-(3-(4-chloro-phenyl)allyl)-4,5,7,8-tetrahydro-6H-thiazolo[5,4-d]azepine]	7 nM	88	620 nM	–
Cl.Cl.Nc1nc2c(s1)CCN(CCCc1ccccc1)CC2 [Example 3b, 2-Amino-6-(3-phenyl-propyl)-4,5,7,8-tetrahydro-6H-thiazolo[5,4-d]azepine-dihydrochloride]	24 nM	145	810 nM	–
Nc1nc2c(s1)CCN(CC=Cc1ccccc1Cl)CC2 [Example 4e, 2-Amino-6-(3-(2-chloro-phenyl)allyl)-4,5,7,8-tetrahydro-6H-thiazolo[5,4-d]azepine]	3 nM	63	190 nM	–
Nc1nc2c(s1)CCN(CC=Cc1ccccc1[N+](=O)[O-])CC2 [Example 4g, 2-Amino-6-(3-(2-nitro-phenyl)allyl)-4,5,7,8-tetrahydro-6H-thiazolo[5,4-d]azepine]	2 nM	120	240 nM	–
Nc1nc2c(s1)CCN(CC=Cc1ccc([N+](=O)[O-])cc1)CC2 [Example 4i, 2-Amino-6-(3-(4-nitro-phenyl)allyl)-4,5,7,8-tetrahydro-6H-thiazolo[5,4-d]azepine]	13 nM	157	2050 nM	–
COc1cccc(C=CCN2CCc3nc(N)sc3CC2)c1OC [Example 4o, 2-Amino-6-(3-(2,3-dimethoxy-phenyl)allyl)-4,5,7,8-tetrahydro-6H-thiazolo[5,4-d]azepine]	1.3 nM	423	550 nM	–
COc1ccc(OC)c(C=CCN2CCc3nc(N)sc3CC2)c1 [Example 4p, 2-Amino-6-(3-(2,5-dimethoxy-phenyl)allyl)-4,5,7,8-tetrahydro-6H-thiazolo[5,4-d]azepine]	0.89 nM	100	89 nM	Duration of activity ([3]; 0.05 mg/kg i.m. (MED)): ~ 2 hours; Side effects ([3]; 0.05 mg/kg i.m. (MED)): none; Duration of activity ([3]; 0.30 mg/kg i.m.): 2.0 to 5 h; Side effects ([3]; 0.30 mg/kg i.m.): none; minimal effective dose [3]: 0.05 mg/kg
Nc1nc2c(s1)CCN(CC=Cc1ccccc1-c1ccccc1)CC2 [Example 4v, 2-Amino-6-(3-(2-biphenyl)allyl)-4,5,7,8-tetrahydro-6H-thiazolo[5,4-d]azepine]	8 nM	287	2300 nM	–
Nc1nc2c(s1)CCN(CC=Cc1ccc(OCc3ccccc3)cc1)CC2 [Example 4z, 2-Amino-6-(3-(4-benzyloxy-phenyl)allyl)-4,5,7,8-tetrahydro-6H-thiazolo[5,4-d]azepine]	8.4 nM	452	3800 nM	–
CC(C)COc1ccc(C=CCN2CCc3nc(N)sc3CC2)cc1 [Example 8n, 2-Amino-6-(3-(4-isobutoxy-phenyl)allyl)-4,5,7,8-tetrahydro-6H-thiazolo[5,4-d]azepine]	15 nM	133	2000 nM	–
Nc1nc2c(s1)CCN(CC(=Cc1ccccc1)c1ccccc1)CC2 [Example 8o]	14 nM	235	3300 nM	–
Cc1nc(C=CCN2CCc3nc(N)sc3CC2)cs1 [Example 9, 2-Amino-6-(3-(2-methyl-4-thiazolyl)allyl)-4,5,7,8,-tetrahydro-6H-thiazolo[5,4-d]azepine-semihydrate]	6.7 nM	79	530 nM	–
Nc1nc2c(s1)CCN(CC#Cc1ccccn1)CC2 [Example 10, 2-Amino-6-(3-(2-pyridyl)-2-propyn-1-yl)-4,5,7,8-tetrahydro-6H-thiazolo[5,4-d]azepine]	17 nM	882	15000 nM	–
Nc1nc2c(s1)CCN(CC=Cc1cccc(Cl)n1)CC2 [Example 11, 2-Amino-6-(3-(6-chloro-2-pyridyl)allyl)-4,5,7,8-tetrahydro-6H-thiazolo[5,4-d]azepine]	3.2 nM	256	820 nM	–
Cc1cccnc1C=CCN1CCc2nc(N)sc2CC1 [Example 11i, 2-Amino-6-(3-(3-methyl-2-pyridyl)allyl)-4,5,7,8-tetrahydro-6H-thiazolo[5,4-d]azepine]	2.6 nM	576	1500 nM	Duration of activity ([3]; 0.05 mg/kg i.m. (MED)): ~ 1.5 hours; Side effects ([3]; 0.05 mg/kg i.m. (MED)): none; Duration of activity ([3]; 0.20 mg/kg i.m.): 2.0 to 5 h; Side effects ([3]; 0.20 mg/kg i.m.): none; minimal effective dose [3]: 0.05 mg/kg
Nc1nc2c(s1)CCN(CC=Cc1ccccc1O)CC2 [Example 15, 2-Amino-6-(3-(2-hydroxy-phenyl)allyl)-4,5,7,8-tetrahydro-6H-thiazolo[5,4-d]azepine]	0.95 nM	621	590 nM	–
Nc1nc2c(s1)CCN(CC=Cc1ccccc1N)CC2 [Example 16, 2-Amino-6-(3-(2-amino-phenyl)allyl)-4,5,7,8-tetrahydro-6H-thiazolo[5,4-d]azepine]	1.4 nM	285	400 nM	–
CN1CCc2cccc3c2[C@H]1Cc1ccc(O)c(O)c1-3 [apomorphine, reference compound]	–	–	–	effect on MPTP-induced symptoms [3]: temporary cessation of this phenomenon
N[C@@H](Cc1ccc(O)c(O)c1)C(=O)O [levodopa, reference compound]	–	–	–	effect on MPTP-induced symptoms [3]: temporary cessation of this phenomenon
